Laboratory results as given in US20240199587A1, “HETEROCYCLIC COMPOUNDS” (Hoffmann-La Roche Inc., priority 2021, published 2024).

target: T1, MAGL (Homo sapiens, UniProt Q99685); assay: 2-AG assay (MAGL inhibitory activity, hydrolysis of 2-arachidonoylglycerol to arachidonic acid followed by mass spectrometry); type: biochemical; conditions: 8 μM 2-arachidonoylglycerol, 15 min pre-incubation, 30 min incubation at RT, RapidFire MS readout
T1 sequence (Q99685 1-303): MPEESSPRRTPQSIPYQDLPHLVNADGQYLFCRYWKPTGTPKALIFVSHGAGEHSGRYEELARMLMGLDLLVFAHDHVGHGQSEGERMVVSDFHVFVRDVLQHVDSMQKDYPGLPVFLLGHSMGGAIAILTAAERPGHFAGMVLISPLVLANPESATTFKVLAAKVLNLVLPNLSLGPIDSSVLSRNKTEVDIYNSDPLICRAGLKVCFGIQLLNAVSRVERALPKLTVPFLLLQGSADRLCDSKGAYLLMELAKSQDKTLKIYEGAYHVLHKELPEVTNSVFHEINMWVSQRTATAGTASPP
In short: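 Arachidonic acid released from 8 μM 2-arachidonoylglycerol was quantified by online SPE triple-quadrupole MS (negative ESI, 303.1→259.1), normalised to d8-arachidonic acid internal standard. Reaction ran 30 min at RT after 15 min RT compound pre-incubation with […] MAGL in TRIS/EDTA/Tween-20 buffer, 2.5% DMSO.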

| Compound | IC50 [µM] |
| --- | --- |
| O=C(N1CC(OCc2ccc(F)cc2Cl)C1)N1CC2(CC(c3ccc(C(F)(F)F)nc3)C2)C1 [Example 533, [3-[(2-chloro-4-fluoro-phenyl)methoxy]azetidin-1-yl]-[6-[6-(trifluoromethyl)-3-pyridyl]-2-azaspiro[3.3]heptan-2-yl]methanone] | 0.813 |
| CC(C)c1ccc(N(C)c2ccc(C3CN(C(=O)N4CC5(CC(c6ccc(C(F)(F)F)nc6)C5)C4)C3)cn2)cc1 [Example 534, [3-[6-(4-isopropyl-N-methyl-anilino)-3-pyridyl]azetidin-1-yl]-[6-[6-(trifluoromethyl)-3-pyridyl]-2-azaspiro[3.3]heptan-2-yl]methanone] | 1.76 |
| O=C(N1CC2(CCC(Cc3ccc(C(F)(F)F)nc3)C2)C1)N1CC2(CC(c3ccc(C(F)(F)F)nc3)C2)C1 (stereo not drawn) [Example 535, [6-[6-(trifluoromethyl)-3-pyridyl]-2-azaspiro[3.3]heptan-2-yl]-[6-[[6-(trifluoromethyl)-3-pyridyl]methyl]-2-azaspiro[3.4]octan-2-yl]methanone] | 0.17 |
| N#Cc1cc(CC2CC3(C2)CN(C(=O)N2CC4(CC(c5ccc(C(F)(F)F)nc5)C4)C2)C3)ccc1C(F)(F)F [Example 536, 2-(trifluoromethyl)-5-[[2-[6-[6-(trifluoromethyl)-3-pyridyl]-2-azaspiro[3.3]heptane-2-carbonyl]-2-azaspiro[3.3]heptan-6-yl]methyl]benzonitrile] | 0.0139 |
| O=C(N1CC(c2ccc(-c3ccc(Cl)cc3Cl)cn2)C1)N1CC2(CC(c3ccc(C(F)(F)F)nc3)C2)C1 [Example 537, [3-[5-(2,4-dichlorophenyl)-2-pyridyl]azetidin-1-yl]-[6-[6-(trifluoromethyl)-3-pyridyl]-2-azaspiro[3.3]heptan-2-yl]methanone] | 0.0803 |
| CS(=O)(=O)c1ccc(-c2ccc(C3CN(C(=O)N4CC5(CC(c6ccc(C(F)(F)F)nc6)C5)C4)C3)cn2)c(Cl)c1 [Example 538, [3-[6-(2-chloro-4-methylsulfonyl-phenyl)-3-pyridyl]azetidin-1-yl]-[6-[6-(trifluoromethyl)-3-pyridyl]-2-azaspiro[3.3]heptan-2-yl]methanone] | 0.381 |
| O=C(N1CC(c2ccc(-c3ccc(Cl)cc3F)cn2)C1)N1CC2(CC(c3ccc(C(F)(F)F)nc3)C2)C1 [Example 539, [3-[5-(4-chloro-2-fluoro-phenyl)-2-pyridyl]azetidin-1-yl]-[6-[6-(trifluoromethyl)-3-pyridyl]-2-azaspiro[3.3]heptan-2-yl]methanone] | 0.176 |
| CC(C)(C)c1nc(-c2ccc(C(=O)N3CC4(CC(n5cc(C#N)cn5)C4)C3)cc2)no1 [compound 21, 1-[2-[4-(5-tert-butyl-1,2,4-oxadiazol-3-yl)benzoyl]-2-azaspiro[3.3]heptan-6-yl]pyrazole-4-carbonitrile] | 3.37 |
| O=C(N1CC2(CC(n3cnc(C4CC4)n3)C2)C1)C12CCC(COCC3(C(F)(F)F)CC3)(CC1)C2 [compound 161, [6-(3-cyclopropyl-1,2,4-triazol-1-yl)-2-azaspiro[3.3]heptan-2-yl]-[4-[[1-(trifluoromethyl)cyclopropyl]methoxymethyl]norbornan-1-yl]methanone] | 0.184 |
| O=C(C1CC(OCC2(C(F)(F)F)CC2)C1)N1CC2(CC(n3cnc(C4CC4)n3)C2)C1 (stereo not drawn) [compound 176, [6-(3-cyclopropyl-1,2,4-triazol-1-yl)-2-azaspiro[3.3]heptan-2-yl]-[3-[[1-(trifluoromethyl)cyclopropyl]methoxy]cyclobutyl]methanone] | 1.44 |
| N-[2-[6-[3-(1- hydroxycyclopropyl)- 1,2,4-triazol-1-yl]-2- azaspiro[3.3]heptane-2- carbonyl]-2- azaspiro[3.3]heptan-6- yl]-3- (trifluoromethyl) benzenesulfonamide [Example 401] | 0.00945 |
| [6-[3-(1- hydroxycyclopropyl)- 1,2,4-triazol-1-yl]-2- azaspiro[3.3]heptan-2- yl]-[6-[4- (trifluoromethyl)-2- pyridyl]methyl]-2- azaspiro[3.3]heptan-2- yl]methanone [Example 400] | 0.00465 |
